Reference: US20230339896A1, “HPK1 INHIBITORS AND USES THEREOF” (QILU REGOR THERAPEUTICS INC., priority 2020, published 2023)

Legend:
Human Pan T cells = assay: IL2 & IFN-γ released by human pan T cell (ELISA); assay type: cell-based; conditions: for EC50 / Human Pan T cells EC2x (nM, IL-2): IL-2, anti-CD3/CD28 stimulation, 48 hours; for Human Pan T cells EC2x (nM, IL-2): concentration giving 200% response (2 folds) over DMSO control; for Max fold change: IL-2 response over DMSO control; for Max fold change / efficacy in inducing IL-2 production: human pan T cells
From the text: This example is an assay method that can be used to determine compound effects on IL2 & IFN-γ release using pan T cells and ELISA assay format.
Procedures for Pan T isolation and Reagent preparation (Day 0): • 1. Cell Growth Medium: • RPMI1640: ATCC, Cat# 30-2001 • 10% FBS: Gibco, Cat# 10099141 • 1% Pen-Strep: Gibco, Cat # 15140122 • 1% Non-essential amino: Gibco, Cat #11140050 • Beta- Mercaptoethanol: Gibco, Cat#21985023 • 2. Pan T isolation buffer preparation: • Prepare a solution containing phosphate-buffered saline (PBS), pH 7.2, 0.5% bovine serum albumin (BSA), and 2 mM EDTA by diluting MACS® BSA Stock Solution (# 130-091-376) 20 times with autoMACS® Rinsing Solution. Keep buffer at 4° C. Degas buffer before use, as air bubbles could block the column.
• 3. Thawing of frozen PBMC • 1) Pre-heat medium at 37° C. water bath. • 2) Rapidly thaw cells in 37° C. water bath. • 3) Add the pre-warmed medium into 15 mL tube. Transfer cells to the tube. • 4) 300 × g centrifuge for 8 min. (centrifuge increase 0, decrease 0). • 5) Wash the PBMC using Rinsing buffer. • 6) Centrifuge PBMC at 300 × g for 8 min, wash it twice (centrifuge increase 9, decrease 1). • 7) Resuspend the cells with Pan T cells isolation buffer and count cells number. • 4. Pan T cells isolation: • Cell staining with microbead cocktail • 1) Prepare cells and determine cell number. Filter cells by 70 µm cell strainer. • 2) Resuspend cell pellet in 40 µL of buffer per 10^7 total cells. • 3) Add 10 µL of Pan T Cell Biotin-Antibody Cocktail per 10^7 total cells. • 4) Mix well and incubate for 10 minutes in the refrigerator (ice). • 5) Add 30 µL of buffer per 10^7 total cells. • 6) Add 20 µL of Pan T Cell MicroBead Cocktail per 10^7 total cells. • 7) Mix well and incubate for 15 minutes in the refrigerator (ice). • 8) Proceed to subsequent magnetic cell separation.
Subsequent manual cell separation: • 1) Place LS Column in the magnetic field of a suitable MACS Separator. For details refer to the respective MACS Column data sheet. • 2) Prepare column by rinsing with 3 mL of buffer. • 3) Apply cell suspension onto the column. Collect flow-through, which represents the enriched T cells. • 4) Wash column with 5 mL of buffer. Collect unlabeled cells that pass through, representing the enriched T cells.
Reminder: Always wait until the column reservoir is empty before proceeding to the next step. • 5. Pan T cell FACS: • 1) Take out 50 µL of PBMC and Pan T cells to FACS tubes respectively. • 2) Incubate cells with anti-human CD3/CD4/CD8 antibodies (1 µL/1 µL/1 µL /tube) for 20 min at 4° C. For unstained control, incubate cells with FACS staining buffer. • 3) Wash 2 times with cold staining buffer (PBS with 0.2%BSA and 1 mM EDTA). • 4) Run FACS. Gate CD3^+, CD3^+CD4^+, and CD3^+CD8^+ population for % analysis. • 5) If the purity of Pan T cells is higher than 90%, dilute cell suspension to 1 million cells/mL with the appropriate volume of Cell Culture Media. • 6) Dispense the cell suspension into a sterile, disposable reservoir for future use.
Procedures for preparation of compounds and anti-human CD3/CD28 (Day 0): • 1. Compound preparation • Compound serial dilution (source plate 1000×) • Compounds are solubilized in 100% DMSO to a concentration of 10 mM. Then they were 3-fold serially diluted to 8-point doses. • 4× Compound dose preparation (inter plate: Corning-3599): • Prepare 4× compound solution in culture medium. Pipet up and down. For the ZPE control, prepare 0.4% DMSO (4×) in culture medium. For the HPE control, prepare 0.4 µM of RGT003-026 (4×) in culture medium. • 2. Anti-human CD3 (stock conc. 6.76 mg/ml): stored at 4° C. • 1) Dilute anti-human CD3 with PBS to final conc. of 0.5 µg/mL. • 2) Add 50 µL /well of CD3 to each well, except for the positive and negative control wells. […] Rinse each well twice with 200 µL of sterile PBS each time. • 3. […]

[1] = Metabolic stability in liver microsomes, human (HLM); assay type: in vitro ADME; conditions: 1 µM compound, NADPH; for half-life at 1 µM: human, liver microsomes, pH 7.4, 0.5 mg/mL protein, read-out: Metabolic Stability T½ (min), HLM
Method: This assay is for determining the stability of test compound in liver microsomes. The study will be conducted in accordance with International Bioethical Standards “World Medical Association Declaration of
Human, Sprague Dawley Rat, CD-1 mouse, Beagle Dog and Cynomolgus Monkey Liver Microsomes samples purchased from BD Gentest or RILD.
0.1 M Potassium phosphate buffer, pH 7.4: • Buffer A: 1.0 L of 0.1 M monobasic Potassium Phosphate buffer containing 1.0 mM EDTA • Buffer B: 1.0 L of 0.1 M Dibasic Potassium Phosphate buffer containing 1.0 mM EDTA • Buffer C (K-phosphate buffer): 0.1 M Potassium Phosphate buffer, 1.0 mM EDTA, pH 7.4 by titrating 700 mL of buffer B with buffer A while monitoring the pH meter
• Prepare 3× test compound or positive control solutions: 500 µM spiking solution: add 10 µL of 10 mM DMSO stock solution into 190 µL ACN. • 1.5 µM spiking solution in microsomes (0.75 mg/mL): add 1.5 µL of 500 µM spiking solution and 18.75 µL of 20 mg/mL liver microsomes into 479.75 µL of K-phosphate buffer.
Add 30 µL of 1.5 µM spiking solution containing 0.75 mg/ml microsomes solution to the wells designated for 45 min, 30 min, 15 min, 5 min and 0 min. Pre-incubate the plate at 37° C. for 5 minutes.
Add 15 µL of NADPH stock solution (6 mM) to all of the wells, and start timing. Immediately, add 135 µL of ACN containing IS to the wells designated as Time 0.
At 5 min, 15 min, 30 min and 45 min, add 135 µL of ACN containing IS to the wells, respectively.
After quenching, centrifuge the reaction mixtures at 3220 x g for 10 min.
Transfer 50 µL of the supernatant from each well into a 96-well sample plate containing 50 µL of ultra pure water (Millipore) for LC/MS analysis.
The % parent remaining at each incubation time point is calculated by comparing to the peak area ratio (compound peak area/internal standard peak area) at T0 (0 minute incubation). The ln peak area ratio is plotted against time and the gradient of the line is determined. The half-life and metabolism of compounds is calculated based upon a natural log linear regression of the relative peak areas vs time. The half-life and intrinsic clearance (Clint) in microsomes are calculated using the equations below. • In Vitro T ½ (min) = 0.693/Elimination rate of constant (k) • Clint (µL/min/mg of microsomal protein) = (0.693 / In Vitro T ½) (Incubation Volume/ mg of microsomes)

Compound	EC50 (Human Pan T cells; Homo sapiens, T-cell) [nM]	Human Pan T cells EC2x (nM, IL-2) (Human Pan T cells)	Max fold change (Human Pan T cells)	efficacy in inducing IL-2 production (Human Pan T cells)	half-life at 1 µM [1] [min]	EC50 (Human Pan T cells) [nM]	Metabolic Stability T½ (min), HLM ([1]; 0.5 mg/mL protein)
COc1cc2c(cc1Nc1ncc(Cl)c(N3CC(C)(CC(=O)O)c4ccccc43)n1)CN(C)CC2 (single isomer, unassigned) [Example 2, (R)-2-(1-(5-chloro-2-((6-methoxy-2-methyl-1,2,3,4-tetrahydroisoquinolin-7-yl)amino)pyrimidin-4-yl)-3-methylindolin-3-yl)acetic acid or (S)-2-(1-(5-chloro-2-((6-methoxy-2-methyl-1,2,3,4-tetrahydroisoquinolin-7-yl)amino)pyrimidin-4-yl)-3-methylindolin-3-yl)acetic acid]	16.2	12.5 (N = 10) nM	3.2 (N = 10)	good efficacy	90.8		
CN1CCc2cc(F)c(Nc3ncc(Cl)c(N4C[C@](C)(CC(=O)O)c5ccccc54)n3)cc2C1 (single isomer, unassigned) [Example 5, (R)-2-[1-[5-chloro-2-[(6-fluoro-2-methyl-3,4-dihydro-1H-isoquinolin-7-yl)amino]pyrimidin-4-yl]-3-methyl-indolin-3-yl]acetic acid or (S)-2-[1-[5-chloro-2-[(6-fluoro-2-methyl-3,4-dihydro-1H-isoquinolin-7-yl)amino]pyrimidin-4-yl]-3-methyl-indolin-3-yl]acetic acid]		7.5 nM	3.88	good efficacy		17.4	HLM: 68 min
COc1cc2c(cc1Nc1ncc(Cl)c(N3CC(C(=O)O)c4ccccc43)n1)CN(C)CC2 (centres unmarked) [Compound 7, reference compound]	278	338 (N = 6) nM	3.2 (N = 6)		237		
COc1cc2c(cc1Nc1ncc(Cl)c(N3CC(CC(=O)O)c4ccccc43)n1)CN(C)CC2 (centres unmarked) [Compound 8, reference compound]	275	240 (N = 2) nM	3.29 (N = 2)		145		
COc1cc2c(cc1Nc1ncc(Cl)c(N3CC(C)(CC(=O)O)c4ccc(F)cc43)n1)CN(C)CC2 (centres unmarked) [Compound 10, reference compound]	17.4	15.6 (N = 5) nM	3.05 (N = 5)		51		
COc1cc2c(cc1Nc1ncc(Cl)c(N3CC(C)(CC(=O)O)c4ccccc43)n1)CN(C)CC2 (centres unmarked) [Example 1, 2-(1-(5-chloro-2-((6-methoxy-2-methyl-1,2,3,4-tetrahydroisoquinolin-7-yl)amino)pyrimidin-4-yl)-3-methylindolin-3-yl)acetic acid]	50	28 (N = 5) nM	3.98 (N = 5)	good efficacy	54.4		
CN1CCc2cc(F)c(Nc3ncc(Cl)c(N4CC(C)(CC(=O)O)c5ccccc54)n3)cc2C1 (centres unmarked) [Example 4, 2-(1-(5-chloro-2-((6-fluoro-2-methyl-1,2,3,4-tetrahydroisoquinolin-7-yl)amino)pyrimidin-4-yl)-3-methylindolin-3-yl)acetic acid]	31.5	20.5 (N = 2) nM	3.84 (N = 2)	good efficacy	110		
